Legend:
Assay type in all cases: cell-based
[1] = system: HL60 tumor cells and the mouse mast cell line 6.5; experiment: AlamarBlue conversion cell proliferation assay, general statements without cell line; conditions: metformin alone at 4 mM
mouse mast cell line 6.5 = experiment: AlamarBlue conversion cell proliferation assay, 6.5 cell line; conditions: combined with 4 mM metformin, 3 days incubation, read-out: concentration that inhibits the proliferation of cells by approximately 50% when combined with 4 mM metformin, 6.5 cell line
Description: (§1) The in vitro anti-proliferative activity of compounds of formula (I), metformin and combinations thereof is tested in an AlamarBlue conversion cell proliferation assay (Promega) on HL60 tumor cells and the mouse mast cell line 6.5 (Colombi et al., Oncogene 2011, 30:1551-65). Cells are seeded into 96-well microtiter plates (seeding cell density is 7,000 cells per well in 150 uL Iscove's medium) and test compounds are added (compounds of formula (I) are added from a 10 mM stock solution in DMSO, metformin from a freshly prepared 1 M solution in culture medium). Plates are incubated for 3 days at 37°, 5% CO2 and proliferation is determined by AlamarBlue staining (0.1 vol % added to cultures and incubated for further 4-5 hours). The conversion of AlamarBlue is proportional to live cell number and is read with a fluorescence plate reader (Ex/Em 535/595 nm). Growth is normalized to the untreated controls.

HL60 tumor cells = experiment: AlamarBlue conversion cell proliferation assay, HL60 cell line; conditions: combined with 4 mM metformin, 3 days incubation, read-out: concentration that inhibits the proliferation of cells by approximately 50% when combined with 4 mM metformin, HL60 cell line
Description: as §1

Structure (SMILES)	anti-proliferative activity on its own [1]	IC50 (mouse mast cell line 6.5)	IC50 (HL60 tumor cells)
CN(C)C(=N)NC(=N)N [Metformin, 3-(diaminomethylidene)-1,1-dimethylguanidine]	do not show significant anti-proliferative activity		
CCOC(=O)Oc1c(OC)cc(C(=O)O[C@@H]2C[C@@H]3CN4CCc5c([nH]c6cc(OC(=O)c7ccccc7)ccc56)[C@H]4C[C@@H]3[C@H](C(=O)OC)[C@H]2OC)cc1OC [Example 15, methyl (1R,15S,17R,18R,19S,20S)-6-(benzoyloxy)-17-({4-[(ethoxycarbonyl)oxy]-3,5-dimethoxyphenyl}carbonyloxy)-18-methoxy-3,13-diazapentacyclo[11.8.0.0^2,10.0^4,9.0^15,20]henicosa-2(10),4,6,8-tetraene-19-carboxylate]		1.5 µM	2 µM
CCOC(=O)Oc1c(OC)cc(C(=O)O[C@@H]2C[C@@H]3CN4CCc5c([nH]c6cc(O)ccc56)[C@H]4C[C@@H]3[C@H](C(=O)OC)[C@H]2OC)cc1OC [Example 13, methyl (1R,15S,17R,18R,19S,20S)-17-({4-[(ethoxycarbonyl)oxy]-3,5-dimethoxyphenyl}carbonyloxy)-6-hydroxy-18-methoxy-3,13-diazapentacyclo[11.8.0.0^2,10.0^4,9.0^15,20]henicosa-2(10),4,6,8-tetraene-19-carboxylate]		1 µM	2 µM
COC(=O)[C@H]1[C@H]2C[C@@H]3c4[nH]c5cc(OC)ccc5c4CCN3C[C@H]2C[C@@H](OC(=O)c2cc(OC)c(OC(=O)OCc3ccc(C(F)(F)F)cc3)c(OC)c2)[C@@H]1OC [Example 38]		4 µM	4 µM
